Measurements taken from ChEMBL document CHEMBL1201862, “PubChem BioAssay data set” (2004).
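Where inhibition never reached the appropriate level, the endpoint shown equals the highest concentration tested. Otherwise, values were interpolated linearly from a five-concentration, 48-hour dose response in 96-well plates. GI50 is the concentration that inhibits growth by half.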 Activity calls are given as the source filed them. Cut-off read from the data, not from the text of the source: active = GI50 up to about 1.1 µM and inactive = higher.

Legend:
Assay in all cases: NCI tumour cell line growth inhibition, 48 h
786-0 = test system: 786-0
CAKI-1 = test system: CAKI-1
DU-145 = test system: DU-145
EKVX = test system: EKVX
HCT-15 = test system: HCT-15
IGROV-1 = test system: IGROV-1
KM12 = test system: KM12
LOX IMVI = test system: LOX IMVI
MCF7 = test system: MCF7
Malme-3M = test system: Malme-3M
PC-3 = test system: PC-3
RPMI-8226 = test system: RPMI-8226
SF-268 = test system: SF-268
SK-MEL-28 = test system: SK-MEL-28
SK-MEL-2 = test system: SK-MEL-2
SK-MEL-5 = test system: SK-MEL-5
SNB-19 = test system: SNB-19
T47D = test system: T47D
U-251 = test system: U-251
UO-31 = test system: UO-31

| SMILES | GI50 (786-0) | GI50 (CAKI-1) | GI50 (DU-145) | GI50 (EKVX) | GI50 (HCT-15) | GI50 (IGROV-1) | GI50 (KM12) | GI50 (LOX IMVI) | GI50 (MCF7) | GI50 (Malme-3M) | GI50 (PC-3) | GI50 (RPMI-8226) | GI50 (SF-268) | GI50 (SK-MEL-28) | GI50 (SK-MEL-2) | GI50 (SK-MEL-5) | GI50 (SNB-19) | GI50 (T47D) | GI50 (U-251) | GI50 (UO-31) |
| --- | --- | --- | --- | --- | --- | --- | --- | --- | --- | --- | --- | --- | --- | --- | --- | --- | --- | --- | --- | --- |
| CCOC(=O)/C=C(/C(=O)OCC)n1ccc(N)nc1=O | > 100 µM (inactive) | 37 µM (inactive) | > 100 µM (inactive) | 84.9 µM (inactive) | > 100 µM | > 100 µM (inactive) | > 100 µM (inactive) | 97.7 µM (inactive) | > 100 µM (inactive) | 44.6 µM (inactive) | > 100 µM (inactive) | > 100 µM (inactive) | > 100 µM (inactive) | > 100 µM (inactive) | > 100 µM (inactive) | > 100 µM (inactive) | > 100 µM (inactive) | > 100 µM (inactive) | > 100 µM (inactive) | > 100 µM (inactive) |
| O/N=C\c1c2c(cc3c1CCC3)CCC2 | > 100 µM (inactive) | > 100 µM (inactive) | > 100 µM (inactive) | > 100 µM (inactive) | > 100 µM | > 100 µM (inactive) | > 100 µM (inactive) | > 100 µM (inactive) | > 100 µM (inactive) | > 100 µM (inactive) | > 100 µM (inactive) | > 100 µM (inactive) | > 100 µM (inactive) | > 100 µM (inactive) | > 100 µM (inactive) | > 100 µM (inactive) | > 100 µM (inactive) | 49.5 µM (inactive) | > 100 µM (inactive) | > 100 µM (inactive) |
| COC(=O)CCC1=CCC2(SC)C(=O)Nc3cccc1c32 (stereo not given) | > 100 µM (inactive) | > 100 µM (inactive) | 44.5 µM (inactive) | 65.3 µM (inactive) | > 100 µM | > 100 µM (inactive) | > 100 µM (inactive) | > 100 µM (inactive) | > 100 µM (inactive) | > 100 µM (inactive) | > 100 µM (inactive) | > 100 µM (inactive) | > 100 µM (inactive) | > 100 µM (inactive) | > 100 µM (inactive) | > 100 µM (inactive) | > 100 µM (inactive) | 4.7 µM (inactive) | > 100 µM (inactive) | > 100 µM (inactive) |
| CCN(CC)c1ccc2cc(-c3nc(O)c4ccccc4n3)c(=N)oc2c1 | > 100 µM (inactive) | > 100 µM (inactive) | > 100 µM (inactive) | > 100 µM (inactive) | > 100 µM | > 100 µM (inactive) | > 100 µM (inactive) | > 100 µM (inactive) | > 100 µM (inactive) | > 100 µM (inactive) | > 100 µM (inactive) | > 100 µM (inactive) | > 100 µM (inactive) | > 100 µM (inactive) | > 100 µM (inactive) | > 100 µM (inactive) | > 100 µM (inactive) | > 100 µM (inactive) | > 100 µM (inactive) | > 100 µM (inactive) |
| CCOC(=O)C1=C(OS(=O)(=O)C(F)(F)F)CCCC1 | > 100 µM (inactive) | > 100 µM (inactive) | > 100 µM (inactive) | > 100 µM (inactive) | > 100 µM | > 100 µM (inactive) | > 100 µM (inactive) | > 100 µM (inactive) | > 100 µM (inactive) | > 100 µM (inactive) | > 100 µM (inactive) | > 100 µM (inactive) | > 100 µM (inactive) | > 100 µM (inactive) | > 100 µM (inactive) | 83 µM (inactive) | > 100 µM (inactive) | > 100 µM (inactive) | > 100 µM (inactive) | > 100 µM (inactive) |
| OCCSCc1cc2c(O)c(c1)Cc1cc(CSCCO)cc(c1O)Cc1cc(CSCCO)cc(c1O)Cc1cc(CSCCO)cc(c1O)C2 | 3.29 µM (inactive) | 3.1 µM (inactive) | 4.91 µM (inactive) | 15 µM (inactive) | 8.81 µM | 3.65 µM (inactive) | 4.28 µM (inactive) | 3.44 µM (inactive) | 3.91 µM (inactive) | 2.04 µM (inactive) | 3.51 µM (inactive) | 3.95 µM (inactive) | 2.88 µM (inactive) | 3.56 µM (inactive) | 2.32 µM (inactive) | 2.69 µM (inactive) | 4.69 µM (inactive) | 6.47 µM (inactive) | 4.48 µM (inactive) | 13.8 µM (inactive) |
| O=C1Nc2ccc(Br)cc2/C1=N/c1ccc2c(c1)OCO2 | 21.6 µM (inactive) | 20.3 µM (inactive) | 34 µM (inactive) | 25.8 µM (inactive) | 19.8 µM | 27.4 µM (inactive) | 17.6 µM (inactive) | 23.1 µM (inactive) | 16.7 µM (inactive) | 18.7 µM (inactive) | 16.3 µM (inactive) | 18.5 µM (inactive) | 35.2 µM (inactive) | 39 µM (inactive) | 17.7 µM (inactive) | 16 µM (inactive) | 74.5 µM (inactive) | 35.9 µM (inactive) | 12.7 µM (inactive) | 19.1 µM (inactive) |
| C=CC[C@@]1(C)CCCCCCCCC[C@@](C)(CC=C)C1=O | 31.3 µM (inactive) | 35.4 µM (inactive) | 50.2 µM (inactive) | 38.4 µM (inactive) | 29.4 µM | 31 µM (inactive) | 30.1 µM (inactive) | 18.1 µM (inactive) | 38.8 µM (inactive) | 25.7 µM (inactive) | 37.1 µM (inactive) | 28.3 µM (inactive) | 36.4 µM (inactive) | 34.1 µM (inactive) | 17.8 µM (inactive) | 16 µM (inactive) | 20.5 µM (inactive) | 21.2 µM (inactive) | 18.9 µM (inactive) | 53.6 µM (inactive) |
| N#Cc1nnc2c3c(-c4ccc(Cl)cc4)c(C#N)c(O)nc3nn2c1N | 5.14 µM (inactive) | 5.6 µM (inactive) | 3.88 µM (inactive) | 12.9 µM (inactive) | 8.83 µM | 2.61 µM (inactive) | 11.9 µM (inactive) | 2.85 µM (inactive) | 2.06 µM (inactive) | 14.4 µM (inactive) | 1.45 µM (inactive) | 8.05 µM (inactive) | 3.26 µM (inactive) | 11.9 µM (inactive) | 9.84 µM (inactive) | 6.71 µM (inactive) | 3.25 µM (inactive) | 1.17 µM (inactive) | 1.28 µM (inactive) | 6.25 µM (inactive) |
| O[C@@]1(C#Cc2ccc3c(c2)OCO3)CCC[C@H]1NCc1ccccc1 | 17.5 µM (inactive) | 28.4 µM (inactive) | 47.2 µM (inactive) | 33.5 µM (inactive) | 19.1 µM | 14.1 µM (inactive) | 20 µM (inactive) | 15.6 µM (inactive) | 22.5 µM (inactive) | 15.2 µM (inactive) | 19.2 µM (inactive) | 24 µM (inactive) | 36.7 µM (inactive) | 17.6 µM (inactive) | 16.2 µM (inactive) | 19.4 µM (inactive) | 22.5 µM (inactive) | 18.7 µM (inactive) | 22.9 µM (inactive) | 18.6 µM (inactive) |
| COc1cccc(C2c3cc4c(cc3OC(C)(N3CCCC3)C2C)OCO4)c1OC (stereo not given) | 14.5 µM (inactive) | 5.06 µM (inactive) | 10 µM (inactive) | 14.9 µM (inactive) | 4.83 µM | 5.82 µM (inactive) | 6.78 µM (inactive) | 11.7 µM (inactive) | 11.9 µM (inactive) | 18.8 µM (inactive) | 5.11 µM (inactive) | 8.97 µM (inactive) | 10.9 µM (inactive) | 25.9 µM (inactive) | 7.74 µM (inactive) | 13.4 µM (inactive) | 22.8 µM (inactive) | 4.24 µM (inactive) | 5.25 µM (inactive) | 6.41 µM (inactive) |
| CCOC(=O)c1cc2cc([N+](=O)[O-])ccc2oc1=O | > 100 µM (inactive) | > 100 µM (inactive) | > 100 µM (inactive) | > 100 µM (inactive) | > 100 µM | > 100 µM (inactive) | > 100 µM (inactive) | > 100 µM (inactive) | 62.1 µM (inactive) | > 100 µM (inactive) | > 100 µM (inactive) | > 100 µM (inactive) | 39.3 µM (inactive) | > 100 µM (inactive) | > 10 µM (inactive) | > 100 µM (inactive) | > 100 µM (inactive) | > 100 µM (inactive) | > 100 µM (inactive) | 35.6 µM (inactive) |
| CC(C)Cn1cnc2c(Cl)nc3ccccc3c21 | 80.2 µM (inactive) | 45.8 µM (inactive) | 73.8 µM (inactive) | 16.6 µM (inactive) | 53.3 µM | 31.9 µM (inactive) | 37.8 µM (inactive) | 35.5 µM (inactive) | 47.9 µM (inactive) | > 100 µM (inactive) | 34.4 µM (inactive) | 42.9 µM (inactive) | 57.3 µM (inactive) | > 100 µM (inactive) | > 100 µM (inactive) | 12.2 µM (inactive) | > 100 µM (inactive) | 77.1 µM (inactive) | 65.9 µM (inactive) | 18.5 µM (inactive) |
| Nc1ncnc2c1ncc(=O)n2C1CC(O)C(CO)O1 (stereo not given) | > 100 µM (inactive) | > 100 µM (inactive) | > 100 µM (inactive) | > 100 µM (inactive) | > 100 µM | > 100 µM (inactive) | > 100 µM (inactive) | > 100 µM (inactive) | > 100 µM (inactive) | > 100 µM (inactive) | > 100 µM (inactive) | > 100 µM (inactive) | > 100 µM (inactive) | > 100 µM (inactive) | > 100 µM (inactive) | > 100 µM (inactive) | > 100 µM (inactive) | > 100 µM (inactive) | > 100 µM (inactive) | > 100 µM (inactive) |
